According to PMC11375437, “Selective labelling of GBA2 in cells with fluorescent β-D-arabinofuranosyl cyclitol aziridines” (Chemical Science, 2024):

Target: T1, GBA2 (Homo sapiens, UniProt Q9HCG7)
T1 sequence (Q9HCG7 1-927): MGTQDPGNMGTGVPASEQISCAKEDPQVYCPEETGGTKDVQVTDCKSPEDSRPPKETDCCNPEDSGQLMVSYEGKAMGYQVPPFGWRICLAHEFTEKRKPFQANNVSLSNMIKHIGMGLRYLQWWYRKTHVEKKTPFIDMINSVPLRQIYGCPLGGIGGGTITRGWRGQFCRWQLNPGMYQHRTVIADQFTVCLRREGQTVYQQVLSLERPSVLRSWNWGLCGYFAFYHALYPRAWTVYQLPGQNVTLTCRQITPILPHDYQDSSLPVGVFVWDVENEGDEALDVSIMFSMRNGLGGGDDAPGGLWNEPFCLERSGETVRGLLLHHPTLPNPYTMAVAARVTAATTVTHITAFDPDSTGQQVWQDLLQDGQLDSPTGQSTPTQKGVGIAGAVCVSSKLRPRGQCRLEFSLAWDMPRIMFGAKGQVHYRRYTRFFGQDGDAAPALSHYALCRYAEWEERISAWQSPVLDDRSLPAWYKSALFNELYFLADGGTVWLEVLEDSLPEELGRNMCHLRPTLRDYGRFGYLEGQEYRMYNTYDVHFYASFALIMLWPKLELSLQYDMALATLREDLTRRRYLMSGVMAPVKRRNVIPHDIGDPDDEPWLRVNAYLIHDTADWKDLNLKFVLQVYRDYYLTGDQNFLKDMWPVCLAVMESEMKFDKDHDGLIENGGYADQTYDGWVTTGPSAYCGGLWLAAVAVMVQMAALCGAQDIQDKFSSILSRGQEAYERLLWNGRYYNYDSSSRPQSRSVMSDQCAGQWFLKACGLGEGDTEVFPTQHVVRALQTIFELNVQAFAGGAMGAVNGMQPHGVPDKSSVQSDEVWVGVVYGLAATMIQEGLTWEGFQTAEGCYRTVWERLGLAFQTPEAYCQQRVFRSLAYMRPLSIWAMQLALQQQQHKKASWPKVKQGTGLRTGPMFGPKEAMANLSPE
Assay: In situ labelling of wild-type HEK293T cells, GBA2
Assay type: cell-based
Parameters: endogenous in cells; host or cells: wild-type HEK293T
Conditions: wild-type HEK293T intact cells; 24 h incubation
Procedure: Importantly, the GBA2 selectivity of β-D-Araf ABPs 3–5 was maintained during in situ labelling of wild-type HEK293T cells (ESI Fig. S9 ^†). […] Even after 24 h incubation, similar results were obtained: ABP 4 selectively labelled GBA2 at 10 nM, with only slight concomitant GBA1 labelling at concentrations higher than 100 nM (ESI Fig. S10 ^†). Selective GBA2 labelling by ABP 3 and 4 finally was also observed in human retinal pigment epithelial-1 cells (Fig. 5C).
Figure S9. Fluorescent gel images of in situ labelling of wild-type HEK293T cells by β-D-Araf aziridine ABPs 3-5.
β-D-Araf ABPs were firstly incubated with intact wild-type HEK293T cells for 1 or 2.5 h (1st incubation) and then cells were harvested. […]
2.12 Reactivity of β-D-Araf aziridines towards GBA2 orthologue in other species β-D-Araf aziridine ABP 3-5 or ABP 7 was incubated with homogenates of zebrafish (Danio rerio) larvae or mice brain for 1 h at 37 °C. […] The zebrafish homogenates were passed through a desalting column (in the same way as described for the irreversibility evaluation above) to remove interference from biological pigments when scanning at λEX 473 nm and λEM ≥ 510 nm for BODIPY green fluorescence. […]

COc1ccc(C2=[N+]3C(=C(CCCCc4cn(CCCCCCCCN5[C@@H]6[C@H](CO)[C@@H](O)[C@H](O)[C@@H]65)nn4)c4ccc(-c5ccc(OC)cc5)n4[B-]3(F)F)C=C2)cc1 (stereo partly shown) [ABP 4]
Concentration at which GBA2 is selectively labelled in situ: 10 nM
